According to patent EP2987533B1, “7-substituted piperazin-1-yl fluoroquinolone compounds, their use in the treatment of cancer, pharmaceutical compositions and a method for preparation” (priority 2014, dated 2016):

Legend:
[1] = tested on: 60 human tumor cell line panel; assay: NCI 60 cell line one-dose SRB primary anticancer assay; type: cell-based; conditions: 60 cell lines assay in one dose, 10µM (title; head prints 10.0 mM), 48 h; for inhibition at 10 µM: Homo sapiens, read-out: MGI % (Mean growth inhibition percentage)
CCRF-CEM = assay: NCI one-dose SRB growth assay; type: cell-based; conditions: Homo sapiens; CCRF-CEM (Leukemia), 10^-5 M, 48 h; read-out: % Growth Inhibition (GI %)
Procedure: (§1) A primary anticancer assay was performed for an approximately 60 human tumor cell line panel derived from nine neoplastic diseases, in accordance with the protocol of the Drug Evaluation Branch, National Cancer Institute, Bethesda, MD (Monks A. et al., J. Natl. Cancer Inst 1991, 83, 757-766; Boyd M.R. and Paull K.D., Drug. Dev. Res. 1995, 34, 91-109; Shoemaker R.H., Nat. Rev. Cancer 2006, 6, 813-823). Briefly, tested compounds were added to the culture at a single concentration (10^-5M), and the cultures were incubated for 48 h. End point determinations were made with a protein binding dye, sulforhodamine B (SRB). The results for each tested compound were reported as the growth percentage of the treated cells when compared to that of the untreated control cells. The percentage growth was evaluated spectrophotometrically versus controls not treated with test agents.

DU-145 = assay: NCI one-dose SRB growth assay; type: cell-based; conditions: Homo sapiens; DU-145 (Prostate Cancer), 10^-5 M, 48 h; read-out: % Growth Inhibition (GI %)
Procedure: as §1

HCC-2998 = assay: NCI one-dose SRB growth assay; type: cell-based; conditions: Homo sapiens; HCC-2998 (Colon Cancer), 10^-5 M, 48 h; read-out: % Growth Inhibition (GI %)
Procedure: as §1

HT29 = assay: NCI one-dose SRB growth assay; type: cell-based; conditions: Homo sapiens, HT-29; HT29 (Colon Cancer), 10^-5 M, 48 h; read-out: % Growth Inhibition (GI %)
Procedure: as §1

MDA-MB-231/ATCC = assay: NCI one-dose SRB growth assay; type: cell-based; conditions: Homo sapiens; MDA-MB- 231/ATCC (Breast Cancer), 10^-5 M, 48 h; read-out: % Growth Inhibition (GI %)
Procedure: as §1

MOLT-4 = assay: NCI one-dose SRB growth assay; type: cell-based; conditions: Homo sapiens; MOLT-4 (Leukemia), 10^-5 M, 48 h; read-out: % Growth Inhibition (GI %)
Procedure: as §1

NCI-H322M = assay: NCI one-dose SRB growth assay; type: cell-based; conditions: Homo sapiens; NCI-H322M (Non-Small Cell Lung Cancer), 10^-5 M, 48 h; read-out: % Growth Inhibition (GI %)
Procedure: as §1

NCI/ADR-RES = assay: NCI one-dose SRB growth assay; type: cell-based; conditions: Homo sapiens; NCI/ADR-RES (Ovarian Cancer), 10^-5 M, 48 h; read-out: % Growth Inhibition (GI %)
Procedure: as §1

OVCAR-3 = assay: NCI one-dose SRB growth assay; type: cell-based; conditions: Homo sapiens; OVCAR-3 (Ovarian Cancer), 10^-5 M, 48 h; read-out: % Growth Inhibition (GI %)
Procedure: as §1

OVCAR-4 = assay: NCI one-dose SRB growth assay; type: cell-based; conditions: Homo sapiens; OVCAR-4 (Ovarian Cancer), 10^-5 M, 48 h; read-out: % Growth Inhibition (GI %)
Procedure: as §1

OVCAR-8 = assay: NCI one-dose SRB growth assay; type: cell-based; conditions: Homo sapiens; OVCAR-8 (Ovarian Cancer), 10^-5 M, 48 h; read-out: % Growth Inhibition (GI %)
Procedure: as §1

SF-268 = assay: NCI one-dose SRB growth assay; type: cell-based; conditions: Homo sapiens; SF-268 (CNS Cancer), 10^-5 M, 48 h; read-out: % Growth Inhibition (GI %)
Procedure: as §1

SK-MEL-28 = assay: NCI one-dose SRB growth assay; type: cell-based; conditions: Homo sapiens; SK-MEL-28 (Melanoma), 10^-5 M, 48 h; read-out: % Growth Inhibition (GI %)
Procedure: as §1

SK-MEL-5 = assay: NCI one-dose SRB growth assay; type: cell-based; conditions: Homo sapiens; SK-MEL-5 (Melanoma), 10^-5 M, 48 h; read-out: % Growth Inhibition (GI %)
Procedure: as §1

SN12C = assay: NCI one-dose SRB growth assay; type: cell-based; conditions: Homo sapiens; SN12C (Renal Cancer), 10^-5 M, 48 h; read-out: % Growth Inhibition (GI %)
Procedure: as §1

TK-10 = assay: NCI one-dose SRB growth assay; type: cell-based; conditions: Homo sapiens; TK-10 (Renal Cancer), 10^-5 M, 48 h; read-out: % Growth Inhibition (GI %)
Procedure: as §1

UO-31 = assay: NCI one-dose SRB growth assay; type: cell-based; conditions: Homo sapiens; UO-31 (Renal Cancer), 10^-5 M, 48 h; read-out: % Growth Inhibition (GI %)
Procedure: as §1

[2] = tested on: full panel of about 60 human tumor cell lines; assay: NCI five-dose SRB assay, full panel mean; conditions: 48 h; for CC50 / GI50: Homo sapiens; for CC50: 60 cell, read-out: LC50 MG-MID (Full panel mean-graph midpoint); for GI50: read-out: GI50 MG-MID (Full panel mean-graph midpoint); for TGI MG-MID (Full panel mean-graph midpoint): five concentrations
leukemia = assay: NCI five-dose SRB assay, subpanel average; conditions: 48 h; for GI50 / CC50: Homo sapiens; for GI50: read-out: GI50 (median growth inhibitory); for CC50: read-out: LC50 (median lethal); for TGI (total growth inhibitory): average over leukemia subpanel, five concentrations
NSC lung cancer = assay: NCI five-dose SRB assay, subpanel average; conditions: 48 h; for GI50 / CC50: Homo sapiens; for GI50: read-out: GI50 (median growth inhibitory); for CC50: read-out: LC50 (median lethal); for TGI (total growth inhibitory): average over NSC lung cancer subpanel, five concentrations
colon cancer = assay: NCI five-dose SRB assay, subpanel average; conditions: 48 h; for GI50 / CC50: Homo sapiens; for GI50: read-out: GI50 (median growth inhibitory); for CC50: read-out: LC50 (median lethal); for TGI (total growth inhibitory): average over colon cancer subpanel, five concentrations
CNS cancer = assay: NCI five-dose SRB assay, subpanel average; conditions: 48 h; for GI50 / CC50: Homo sapiens; for GI50: read-out: GI50 (median growth inhibitory); for CC50: read-out: LC50 (median lethal); for TGI (total growth inhibitory): average over CNS cancer subpanel, five concentrations
melanoma = assay: NCI five-dose SRB assay, subpanel average; conditions: 48 h; for GI50 / CC50: Homo sapiens; for GI50: read-out: GI50 (median growth inhibitory); for CC50: read-out: LC50 (median lethal); for TGI (total growth inhibitory): average over melanoma subpanel, five concentrations
ovarian cancer = assay: NCI five-dose SRB assay, subpanel average; conditions: 48 h; for GI50 / CC50: Homo sapiens; for GI50: read-out: GI50 (median growth inhibitory); for CC50: read-out: LC50 (median lethal); for TGI (total growth inhibitory): average over ovarian cancer subpanel, five concentrations
renal cancer = assay: NCI five-dose SRB assay, subpanel average; conditions: 48 h; for GI50 / CC50: Homo sapiens; for GI50: read-out: GI50 (median growth inhibitory); for CC50: read-out: LC50 (median lethal); for TGI (total growth inhibitory): average over renal cancer subpanel, five concentrations

Structure (SMILES): Cc1cc(C)c(S(=O)(=O)N2CCN(c3cc4c(cc3F)c(=O)c(C(=O)O)cn4C3CC3)CC2)c(C)c1 [Compound 6b]
- PCE (Positive cytotoxic effect: ratio between number of cell lines with percentage growth inhibition from 10 to >100 and total number of cell lines) [1]: 56/58
- RGI % (Range of growth inhibition percentage) [1]: 91.28 to 13.08%
- inhibition at 10 µM [1]: 43.8%
- inhibition at 10 µM (CCRF-CEM): 62.7%
- inhibition at 10 µM (DU-145): 28.6%
- inhibition at 10 µM (HCC-2998): 52.3%
- inhibition at 10 µM (HT29): 71.7%
- inhibition at 10 µM (MDA-MB-231/ATCC): 15.4%
- inhibition at 10 µM (MOLT-4): 39%
- inhibition at 10 µM (NCI-H322M): 25.3%
- inhibition at 10 µM (NCI/ADR-RES): 30.1%
- inhibition at 10 µM (OVCAR-3): < 10%
- inhibition at 10 µM (OVCAR-4): 24.4%
- inhibition at 10 µM (OVCAR-8): 40.5%
- inhibition at 10 µM (SF-268): 43.3%
- inhibition at 10 µM (SK-MEL-28): 30.9%
- inhibition at 10 µM (SK-MEL-5): 45.1%
- inhibition at 10 µM (SN12C): 86.1%
- inhibition at 10 µM (TK-10): 13.5%
- inhibition at 10 µM (UO-31): 83.9%
- CC50 [2]: > 100 µM
- GI50 [2]: 3.01 µM
- TGI MG-MID (Full panel mean-graph midpoint) [2]: 89.12 µM
- GI50 (leukemia): 2.57 µM
- CC50 (leukemia): > 100 µM
- TGI (total growth inhibitory) (leukemia): 76.70 µM
- GI50 (NSC lung cancer): 2.88 µM
- CC50 (NSC lung cancer): > 100 µM
- TGI (total growth inhibitory) (NSC lung cancer): c (Compounds showed values > 100µM)
- GI50 (colon cancer): 3.46 µM
- CC50 (colon cancer): > 100 µM
- TGI (total growth inhibitory) (colon cancer): c (Compounds showed values > 100µM)
- GI50 (CNS cancer): 2.95 µM
- CC50 (CNS cancer): > 100 µM
- TGI (total growth inhibitory) (CNS cancer): c (Compounds showed values > 100µM)
- GI50 (melanoma): 22.3 µM
- CC50 (melanoma): > 100 µM
- TGI (total growth inhibitory) (melanoma): c (Compounds showed values > 100µM)
- GI50 (ovarian cancer): 2.89 µM
- CC50 (ovarian cancer): > 100 µM
- TGI (total growth inhibitory) (ovarian cancer): c (Compounds showed values > 100µM)
- GI50 (renal cancer): 2.78 µM
- CC50 (renal cancer): > 100 µM
- TGI (total growth inhibitory) (renal cancer): c (Compounds showed values > 100µM)

Structure (SMILES): CCn1cc(C(=O)O)c(=O)c2cc(F)c(N3CCN(S(=O)(=O)c4cccc5ccccc45)CC3)cc21 [Compound 7a]
- PCE (Positive cytotoxic effect: ratio between number of cell lines with percentage growth inhibition from 10 to >100 and total number of cell lines) [1]: 58/58
- RGI % (Range of growth inhibition percentage) [1]: >100.0 to 40.83%
- inhibition at 10 µM [1]: 93.8%
- inhibition at 10 µM (CCRF-CEM): 87.9%
- inhibition at 10 µM (DU-145): 81.1%
- inhibition at 10 µM (HCC-2998): 68.4%
- inhibition at 10 µM (HT29): 96%
- inhibition at 10 µM (MDA-MB-231/ATCC): 76.1%
- inhibition at 10 µM (MOLT-4): 91.6%
- inhibition at 10 µM (NCI-H322M): > 100%
- inhibition at 10 µM (NCI/ADR-RES): 78.7%
- inhibition at 10 µM (OVCAR-3): > 100%
- inhibition at 10 µM (OVCAR-4): 76.2%
- inhibition at 10 µM (OVCAR-8): 91.6%
- inhibition at 10 µM (SF-268): 83.6%
- inhibition at 10 µM (SK-MEL-28): 40.8%
- inhibition at 10 µM (SK-MEL-5): > 100%
- inhibition at 10 µM (SN12C): 88.1%
- inhibition at 10 µM (TK-10): 74%
- inhibition at 10 µM (UO-31): > 100%
- CC50 [2]: 95.5 µM
- GI50 [2]: 3.09 µM
- TGI MG-MID (Full panel mean-graph midpoint) [2]: 29.51 µM
- GI50 (leukemia): 3.48 µM
- CC50 (leukemia): > 100 µM
- TGI (total growth inhibitory) (leukemia): 63.22 µM
- GI50 (NSC lung cancer): 3.04 µM
- CC50 (NSC lung cancer): > 100 µM
- TGI (total growth inhibitory) (NSC lung cancer): 46.59 µM
- GI50 (colon cancer): 3.39 µM
- CC50 (colon cancer): 86.8 µM
- TGI (total growth inhibitory) (colon cancer): 67.85 µM
- GI50 (CNS cancer): 3.09 µM
- CC50 (CNS cancer): > 100 µM
- TGI (total growth inhibitory) (CNS cancer): 63.40 µM
- GI50 (melanoma): 3.2 µM
- CC50 (melanoma): 99.7 µM
- TGI (total growth inhibitory) (melanoma): 28.33 µM
- GI50 (ovarian cancer): 3.07 µM
- CC50 (ovarian cancer): > 100 µM
- TGI (total growth inhibitory) (ovarian cancer): 62.35 µM
- GI50 (renal cancer): 3.5 µM
- CC50 (renal cancer): > 100 µM
- TGI (total growth inhibitory) (renal cancer): 63.09 µM
